Results published in publication PMC11267363, “Supramolecular Nanofibers Ameliorate Bleomycin‐Induced Pulmonary Fibrosis by Restoring Autophagy” (Advanced Science, 2024).
Ends that are not written are not given here.

How the values were obtained:
[1] = test system: autophagic flux in activated MRC-5 cells; assay: Autophagic flux (LC3-II:LC3-I, p62 western blot; mRFP-GFP-LC3 live-cell imaging); format: cell-based, human; conditions: TGF-β1 10 ng/mL, peptide 50 µM, 24 h
Experimental: According to the manufacturer's instructions, MRC-5 cells were infected with mRFP-GFP-LC3 adenoviral particles. After infection, the cells were cultured for another 24 h and seeded on a CLSM dish at a density of 5 × 10^4 cells. After adherence, the cells were treated with 0 or 10 ng mL^-1 TGF-β1 for 24 h. On the other hand, in order to detect whether peptide could regulate the autophagic flux, the stable infected MRC-5 cells were seeded on a CLSM dish at a density of 5 × 10^4 cells. After adherence, the cells were treated with saline, Ac-GFFY-A2 (50 μM) or A2 (50 μM) plus TGF-β1 (10 ng mL^-1) for 24 h. The cells solely treated by saline as control group. Discarding the medium and washing the cells with cold PBS buffer. The autophagic flux was detected by Live Cell Imaging Microscopy (Leica TCS SP5). page 18: […] -3' and [NT]. […] The autophagic flux was detected by Live Cell Imaging Microscopy (Leica TCS SP5). […] The protein concentration was measured using BCA Protein Assay Kit (Thermo Scientific). […] The protein transferred PVDF membranes were incubated with following primary antibodies at 4°C overnight: Then the membranes were incubated with horseradish peroxidase (HRP)-conjugated secondary antibodies at room temperature for 1 h, and protein signals were detected using an enhanced chemiluminescence kit (Pierce). […] The co -precipitates were resolved using SDS-PAGE and detected with immunoblotting. […]

[2] = test system: MRC-5 cells; assay: Western blot of α-SMA, Col 1 and fibronectin in TGF-β1 treated MRC-5 cells; format: cell-based, human; conditions: MRC-5 cells treated with TGF-β1, western blot, n = 3
Text: The progression of pulmonary fibrosis is closely associated with impaired autophagic flux by promoting the differentiation of fibroblast into myofibroblast. Given that Ac‐GFFY‐A2 peptide nanofibers have ability to restore the impaired autophagy, we proceeded to investigate their potential anti‐fibrotic effect. Fibroblasts and myofibroblasts are activated after tissue injury and in IPF patients, leading to increased ECM production and enhanced fibroblast migratory capacity.
Western blot analysis and co-immunoprecipitation
Total proteins were exacted from cells or tissues with RIPA lysis buffer (Beyotime Biotecnology). The protein concentration was measured using BCA Protein Assay Kit (Thermo Scientific). Equal amounts of lysates were resolved by SDS–PAGE. The protein transferred PVDF membranes were incubated with following primary antibodies at 4°C overnight: Then the membranes were incubated with horseradish peroxidase (HRP)-conjugated secondary antibodies at room temperature for 1 h, and protein signals were detected using an enhanced chemiluminescence kit (Pierce). […] The co -precipitates were resolved using SDS–PAGE and detected with immunoblotting. […]
The mice were then intravenously injected with 200 μL of sulfo-Cy5 labeled peptide (0.3 mg per mouse). Fluorescence imaging was performed using a IVIS Lumina II imaging (PerkinElmer, USA) at different time point post injection. […]

Row | Substance | autophagic flux [1] | protein expression of α-SMA, col 1 and fibronectin [2]
1 | Ac-GFFYGGWLTRLLQTK-OH [Ac-GFFY-A2] | restoration of autophagic flux | remarkably reduced
2 | GGWLTRLLQTK-OH [A2, reference compound] | barely increased | hardly inhibited fibroblast to myofibroblast differentiation
